Among the data in patent publication US20230159445A1, “STAT INHIBITORY COMPOUNDS AND COMPOSITIONS” (JANPIX LIMITED, priority 2020, published 2023) are IC50 and half-life values, retold here.

One series relates to MV4-11 cells. Briefly: MV4-11 Cell Cytotoxicity Assay (CellTiter-Blue, 72 h). The series is classed as cell-based, human. The conditions noted are these: Homo sapiens, MV4-11; MV-4-11 cells. The procedure, abridged:
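Viability read-out: CellTiter-Blue, 1 h, fluorescence 560/590 nm. Preceded by 72 h exposure (37° C, 5% CO2) to twofold dilution series from 50 μM, triplicate, 0.5% DMSO vehicle, applied 24 h after plating.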
Background: Alamar Blue is a resazurin reagent that responds to reducing activity.

The next series concerns glutathione (GSH). The experiment in a line: Reactivity Profiling with Glutathione (GSH), half-life by HPLC. The conditions noted are these: 5 mM glutathione (GSH) in IMDM with 10% FBS.

What is called IC50 is the point on the concentration scale where inhibition reaches its midpoint. The half-life is the time needed for the level to fall by half in the phase considered. A high value points to slow loss.

On to `COc1cc(C(=O)O)ccc1N(Cc1cc(C2CC2)cc(C(C)(C)C)c1)C(=O)CN(Cc1ncccc1F)S(=O)(=O)c1c(F)c(F)c(F)c(F)c1F` [Compound 1084, 4-(N-(3-(tert-butyl)-5-cyclopropylbenzyl)-2-(N-((3-fluoropyridin-2-yl)methyl)-(2,3,4,5,6-pentafluoro-phenyl)sulfonamido)acetamido)-3-methoxybenzoic acid], for which, in the series on MV4-11 cells, the 50% inhibitory concentration (IC50) is 316 to 1000 nM. In the series with glutathione (GSH), this molecule yielded a half-life at 25 μM of 0.00167 to 2.37 h.
Taken in the same sequence, the figures for `COc1cc(C(=O)O)ccc1N(Cc1cc(C2CC2)cc(C(C)(C)C)c1)C(=O)CN(Cc1ccc(F)cn1)S(=O)(=O)c1c(F)c(F)c(F)c(F)c1F` [Compound 1085, 4-(N-(3-(tert-butyl)-5-cyclopropylbenzyl)-2-(N-((5-fluoropyridin-2-yl)methyl)-(2,3,4,5,6-pentafluoro-phenyl)sulfonamido)acetamido)-3-methoxybenzoic acid] were 316 to 1000 nM and 0.00167 to 2.37 h.
For the molecule `CC(c1cc(CN(C(=O)CN(Cc2ccccc2F)S(=O)(=O)c2c(F)c(F)c(F)c(F)c2F)c2ccc(C(=O)O)c(O)c2)cc(C2CC2)c1)C(F)(F)F` (stereo not shown) [Compound 1086, 4-(N-(3-cyclopropyl-5-(1,1,1-trifluoropropan-2-yl)benzyl)-2-(N-(2-fluorobenzyl)-(2,3,4,5,6-pentafluoro-phenyl)sulfonamido)acetamido)-2-hydroxybenzoic acid], in the series on MV4-11 cells, the IC50 fell in the range of 1000 to 3160 nM. In the series on glutathione (GSH), the half-life at 25 μM is 2.37 to 4.12 h.
As for `Cc1cc(C(=O)O)ccc1N(Cc1cc(C2CC2)cc(C(C)(C)C)c1)C(=O)CN(Cc1ccccc1F)S(=O)(=O)c1c(F)c(F)c(F)c(F)c1F` [Compound 1088, 4-(N-(3-(tert-butyl)-5-cyclopropylbenzyl)-2-(N-(2-fluorobenzyl)-(2,3,4,5,6-pentafluoro-phenyl)sulfonamido)acetamido)-3-methylbenzoic acid], in the series on MV4-11 cells, the 50% inhibitory concentration (IC50) lay within 0.01 to 316 nM. In the series on glutathione (GSH), the half-life at 25 μM lay within 2.37 to 4.12 h.
Taken in the same sequence, the figures for `Cc1cc(C(=O)O)ccc1N(Cc1cc(C2CC2)cc(C(C)(C)C)c1)C(=O)CN(Cc1ccccc1C(F)(F)F)S(=O)(=O)c1c(F)c(F)c(F)c(F)c1F` [Compound 1089, 4-(N-(3-(tert-butyl)-5-cyclopropylbenzyl)-2-(N-(2-(trifluoromethyl)benzyl)-(2,3,4,5,6-pentafluoro-phenyl)sulfonamido)acetamido)-3-methylbenzoic acid] were 316 to 1000 nM and 9.23 to 1670 h.
In the series with MV4-11 cells, `Cc1cc(C(=O)O)ccc1N(Cc1cc(C2CC2)cc(C(C)(C)C)c1)C(=O)CN(Cc1ccccc1C#N)S(=O)(=O)c1c(F)c(F)c(F)c(F)c1F` [Compound 1090, 4-(N-(3-(tert-butyl)-5-cyclopropylbenzyl)-2-(N-(2-cyanobenzyl)-(2,3,4,5,6-pentafluorophenyl)sulfon-amido)acetamido)-3-methylbenzoic acid] displayed an IC50 of 316 to 1000 nM. In addition, the half-life at 25 μM in the series on glutathione (GSH) fell in the range of 2.37 to 4.12 h.
On the same counts, the results for `CC(C)(C)c1cc(CN(C(=O)CN(Cc2ccccc2F)S(=O)(=O)c2c(F)c(F)c(F)c(F)c2F)c2ccc(C(=O)O)cc2OC2CC(F)(F)C2)cc(C2CC2)c1` [Compound 1093, 4-(N-(3-(tert-butyl)-5-cyclopropylbenzyl)-2-(N-(2-fluorobenzyl)-(2,3,4,5,6-pentafluoro-phenyl)sulfonamido)acetamido)-3-(3,3-difluorocyclobutoxy) benzoic acid] are 316 to 1000 nM and 9.23 to 1670 h.
In turn, `COc1cc(C(=O)O)ccc1N(Cc1cc(C2CC2)cc(C(C)(C)C)c1)C(=O)CN(Cc1ccc(F)nc1F)S(=O)(=O)c1c(F)c(F)c(F)c(F)c1F` [Compound 1095, 4-(N-(3-(tert-butyl)-5-cyclopropylbenzyl)-2-(N-((2,6-difluoropyridin-3-yl)methyl)-(2,3,4,5,6-pentafluorophenyl)sulfon-amido)acetamido)-3-methoxybenzoic acid] gave a 50% inhibitory concentration (IC50) with MV4-11 cells of 0.01 to 316 nM. In addition, in the series on glutathione (GSH), the half-life at 25 μM is 0.00167 to 2.37 h.
